# Experimental data: patent US9260485B2 (priority 2009, dated 2016)
# Columns and labels:
# Experiment in all cases: Multidrug resistance-reversing activity: effect on paclitaxel's cytotoxicity
# Format in all cases: cell-based
# HCT15/CL02 = conditions: Homo sapiens, HCT-15, TAX alone
# Protocol: (§1) The cyclic pentadepsipeptides of Chemical Formulas 1 and 2 were analyzed for MDR-reversing activity by comparing inhibitory activities against multidrug-resistant cancer cell lines (MES-SA/DX5 and HCT15/CL02) with those against non-multidrug-resistant cancer cell lines (MES-SA and HCT15). In this regard, the effects of the cyclic pentadepsipeptides of Chemical Formulas 1 and 2 on paclitaxel's cytotoxicity against MDR tumor cells were measured (Table 6).
# HCT15 = conditions: Homo sapiens, HCT-15, TAX alone
# Protocol: as §1
# MES-SA/DX5 = conditions: Homo sapiens, TAX alone
# Protocol: as §1
# MES-SA = conditions: Homo sapiens, TAX alone
# Protocol: as §1
compound,measurement,setting,value
"CC(=O)O[C@H]1C(=O)[C@@]2(C)[C@H]([C@H](OC(=O)c3ccccc3)[C@]3(O)C[C@H](OC(=O)[C@H](O)[C@@H](NC(=O)c4ccccc4)c4ccccc4)C(C)=C1C3(C)C)[C@]1(OC(C)=O)CO[C@@H]1C[C@@H]2O [TAX, paclitaxel]",EC50,HCT15/CL02,> 1000 nM
same,EC50,HCT15,0.85 ± 0.63 nM
same,EC50,MES-SA/DX5,10 ± 0.53 nM
same,EC50,MES-SA,1 ± 0.2 nM
